Converted amounts (≈) assume the structure as drawn.
Key:
[1] = biological target: T1, Peroxisome proliferator-activated receptor alpha (Homo sapiens) (UniProt Q07869); assay: Transactivation of Gal4-fused human PPARalpha expressed in CHO cells co expressing pG5-Luc reporter at 1 uM; assay type: cell-based; conditions: filed as agonist
T1 sequence (whole entry): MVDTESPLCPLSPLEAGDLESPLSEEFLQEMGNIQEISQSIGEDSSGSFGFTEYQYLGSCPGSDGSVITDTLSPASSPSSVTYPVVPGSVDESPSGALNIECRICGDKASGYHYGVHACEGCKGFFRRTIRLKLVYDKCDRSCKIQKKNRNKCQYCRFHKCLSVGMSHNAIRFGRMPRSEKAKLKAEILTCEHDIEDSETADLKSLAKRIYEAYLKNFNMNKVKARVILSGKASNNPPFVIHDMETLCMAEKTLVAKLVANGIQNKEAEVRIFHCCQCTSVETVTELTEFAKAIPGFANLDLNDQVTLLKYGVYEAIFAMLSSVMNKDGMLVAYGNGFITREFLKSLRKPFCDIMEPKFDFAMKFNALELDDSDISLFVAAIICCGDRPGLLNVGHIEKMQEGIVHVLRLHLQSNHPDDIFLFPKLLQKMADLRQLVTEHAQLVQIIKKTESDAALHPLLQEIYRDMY

[2] = biological target: T2, Peroxisome proliferator-activated receptor alpha (Homo sapiens, UniProt Q07869); assay: Transactivation of Gal4-fused human PPARalpha expressed in CHO cells co expressing pG5-Luc reporter; assay type: cell-based
T2 sequence (Q07869 whole entry): T1 sequence (whole entry)

[3] = biological target: T3, Peroxisome proliferator-activated receptor gamma (Homo sapiens, UniProt P37231); assay type: cell-based, CHO
T3 sequence (P37231 whole entry): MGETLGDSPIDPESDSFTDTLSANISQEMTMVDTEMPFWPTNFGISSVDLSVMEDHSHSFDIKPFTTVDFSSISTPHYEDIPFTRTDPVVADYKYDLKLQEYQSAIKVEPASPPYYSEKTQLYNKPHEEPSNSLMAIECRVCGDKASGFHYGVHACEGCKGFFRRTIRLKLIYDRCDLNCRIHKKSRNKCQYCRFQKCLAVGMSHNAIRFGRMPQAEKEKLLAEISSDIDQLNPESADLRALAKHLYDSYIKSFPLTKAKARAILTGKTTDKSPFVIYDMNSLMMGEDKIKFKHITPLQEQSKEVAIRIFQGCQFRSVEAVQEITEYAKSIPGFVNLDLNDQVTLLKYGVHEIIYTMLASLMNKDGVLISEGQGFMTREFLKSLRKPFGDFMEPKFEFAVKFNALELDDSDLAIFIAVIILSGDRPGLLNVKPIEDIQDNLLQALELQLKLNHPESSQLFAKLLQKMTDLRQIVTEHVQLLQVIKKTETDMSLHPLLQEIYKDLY

[4] = biological target: T4, Peroxisome proliferator-activated receptor delta (Homo sapiens, UniProt Q03181); assay: Transactivation of Gal4-fused human PPARdelta expressed in CHO cells co expressing pG5-Luc reporter; assay type: cell-based
T4 sequence (Q03181 whole entry): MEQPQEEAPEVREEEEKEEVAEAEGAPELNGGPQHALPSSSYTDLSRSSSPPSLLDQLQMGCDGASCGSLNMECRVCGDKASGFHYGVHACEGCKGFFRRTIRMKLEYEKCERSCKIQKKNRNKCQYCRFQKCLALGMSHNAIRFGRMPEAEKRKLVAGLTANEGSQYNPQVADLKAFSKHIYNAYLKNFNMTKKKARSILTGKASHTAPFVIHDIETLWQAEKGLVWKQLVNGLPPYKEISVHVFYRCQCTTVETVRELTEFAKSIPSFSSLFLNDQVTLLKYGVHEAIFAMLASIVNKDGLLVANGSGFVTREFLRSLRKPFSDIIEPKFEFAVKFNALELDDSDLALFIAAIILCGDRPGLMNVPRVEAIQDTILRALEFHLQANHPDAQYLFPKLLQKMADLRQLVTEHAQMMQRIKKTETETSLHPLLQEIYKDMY

[5] = biological target: T5, Peroxisome proliferator-activated receptor delta (Mus musculus, UniProt P35396); assay: Transactivation of Gal4-fused mouse PPARdelta expressed in CHO cells co expressing pG5-Luc reporter; assay type: cell-based
T5 sequence (P35396 whole entry): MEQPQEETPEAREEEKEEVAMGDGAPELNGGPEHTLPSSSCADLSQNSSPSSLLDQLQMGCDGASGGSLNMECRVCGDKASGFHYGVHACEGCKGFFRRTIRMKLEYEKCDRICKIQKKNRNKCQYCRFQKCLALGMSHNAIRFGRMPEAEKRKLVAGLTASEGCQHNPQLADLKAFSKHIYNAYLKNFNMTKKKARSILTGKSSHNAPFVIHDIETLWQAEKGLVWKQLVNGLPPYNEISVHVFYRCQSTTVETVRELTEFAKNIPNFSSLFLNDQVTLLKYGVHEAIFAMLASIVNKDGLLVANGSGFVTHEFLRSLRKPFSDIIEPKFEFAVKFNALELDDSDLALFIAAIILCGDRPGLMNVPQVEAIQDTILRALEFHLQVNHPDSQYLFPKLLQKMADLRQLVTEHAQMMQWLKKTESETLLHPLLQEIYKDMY

[6] = biological target: T6, Peroxisome proliferator-activated receptor delta (Mus musculus) (UniProt P35396); assay: Transactivation of Gal4-fused mouse PPARdelta expressed in CHO cells co expressing pG5-Luc reporter at 1 uM; assay type: cell-based; conditions: filed as agonist
T6 sequence (whole entry): T5 sequence (P35396 whole entry)

[7] = biological target: T1, Peroxisome proliferator-activated receptor alpha (Homo sapiens); assay: Transactivation of Gal4-fused human PPARalpha expressed in CHO cells co expressing pG5-Luc reporter at 10 uM; assay type: cell-based; conditions: filed as agonist
[8] = biological target: T7, Peroxisome proliferator-activated receptor gamma (Homo sapiens) (UniProt P37231); assay: Transactivation of Gal4-fused human PPARgamma expressed in CHO cells co expressing pG5-Luc reporter at 10 uM; assay type: cell-based; conditions: filed as agonist
T7 sequence (whole entry): T3 sequence (P37231 whole entry)

[9] = biological target: T8, Peroxisome proliferator-activated receptor delta (Homo sapiens) (UniProt Q03181); assay: Transactivation of Gal4-fused human PPARdelta expressed in CHO cells co expressing pG5-Luc reporter at 10 uM; assay type: cell-based; conditions: filed as agonist
T8 sequence (whole entry): T4 sequence (Q03181 whole entry)

[10] = test system: Mus musculus; assay: Anti-obesity activity in […] mouse assessed as HDL cholesterol level at 30 mg/kg, po for 8 days (reference value: 103.5 +/- 3.2 %); assay type: functional; conditions: time 8 day
[11] = test system: Mus musculus; assay: Anti-obesity activity in […] mouse assessed as TG level at 30 mg/kg, po for 8 days (reference value: 162.8 +/- 21.4 mg/dL); assay type: functional; conditions: time 8 day
[12] = test system: Mus musculus; assay: Anti-diabetic activity in […] mouse assessed as glucose level at 30 mg/kg, po for 8 days (reference value: 737 +/- 52 mg/dL); assay type: functional; conditions: time 8 day
[13] = biological target: T9, CYP1A2 (Homo sapiens, UniProt P05177); assay: Inhibition of CYP1A2 (unknown origin) assessed as residual activity at 20 uM by enzyme assay relative to control; assay type: ADME; conditions: read-out: Activity
T9 sequence (P05177 whole entry): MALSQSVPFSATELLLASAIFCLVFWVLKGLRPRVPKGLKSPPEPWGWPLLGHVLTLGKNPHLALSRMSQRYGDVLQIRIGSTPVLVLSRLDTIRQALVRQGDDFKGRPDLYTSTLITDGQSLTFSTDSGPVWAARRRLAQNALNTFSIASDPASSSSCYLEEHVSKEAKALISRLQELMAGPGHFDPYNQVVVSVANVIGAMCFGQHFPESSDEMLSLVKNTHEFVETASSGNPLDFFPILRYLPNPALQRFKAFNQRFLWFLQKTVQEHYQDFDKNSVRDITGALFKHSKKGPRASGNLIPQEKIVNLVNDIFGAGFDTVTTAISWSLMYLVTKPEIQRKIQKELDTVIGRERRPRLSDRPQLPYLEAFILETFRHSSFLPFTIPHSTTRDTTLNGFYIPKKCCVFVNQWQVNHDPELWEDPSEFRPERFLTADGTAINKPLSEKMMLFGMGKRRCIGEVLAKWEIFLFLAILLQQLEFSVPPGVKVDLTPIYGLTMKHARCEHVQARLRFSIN

[14] = Metabolic stability in rat liver microsomes assessed as parent compound remaining after 0.5 hrs relative to control; assay type: ADME, Microsome; conditions: read-out: Stability
[15] = Metabolic stability in human liver microsomes assessed as parent compound remaining after 0.5 hrs relative to control; assay type: ADME, Microsome; conditions: read-out: Stability
[16] = biological target: CYP2C9 (Homo sapiens, UniProt P11712); assay: Inhibition of CYP2C9 (unknown origin) assessed as residual activity at 20 uM by enzyme assay relative to control; assay type: ADME; conditions: read-out: Activity
[17] = biological target: CYP2D6 (Homo sapiens, UniProt P10635); assay: Inhibition of CYP2D6 (unknown origin) assessed as residual activity at 20 uM by enzyme assay relative to control; assay type: ADME; conditions: read-out: Activity
[18] = biological target: CYP3A4 (Homo sapiens, UniProt P08684); assay: Inhibition of CYP3A4 (unknown origin) assessed as residual activity at 20 uM by enzyme assay relative to control; assay type: ADME; conditions: read-out: Activity
[19] = Kinetic solubility of compound at pH 6.8 by HPLC analysis; assay type: physicochemical; conditions: buffer, read-out: Kinetic_solubility
[20] = Total clearance in rat dosed as mixture; assay type: ADME, organism-based; conditions: in vivo
[21] = Half life in rat dosed as mixture; assay type: ADME, organism-based; conditions: in vivo
[22] = species: Homo sapiens; assay: Selectivity index, ratio of EC50 for human PPARalpha to EC50 for human PPARdelta
[23] = biological target: PPAR delta/gamma (Homo sapiens) (UniProt P37231+Q03181); assay: Selectivity index, ratio of EC50 for human PPAgamma to EC50 for human PPARdelta; assay type: protein assay

CYP2C9, sequence (P11712 whole entry): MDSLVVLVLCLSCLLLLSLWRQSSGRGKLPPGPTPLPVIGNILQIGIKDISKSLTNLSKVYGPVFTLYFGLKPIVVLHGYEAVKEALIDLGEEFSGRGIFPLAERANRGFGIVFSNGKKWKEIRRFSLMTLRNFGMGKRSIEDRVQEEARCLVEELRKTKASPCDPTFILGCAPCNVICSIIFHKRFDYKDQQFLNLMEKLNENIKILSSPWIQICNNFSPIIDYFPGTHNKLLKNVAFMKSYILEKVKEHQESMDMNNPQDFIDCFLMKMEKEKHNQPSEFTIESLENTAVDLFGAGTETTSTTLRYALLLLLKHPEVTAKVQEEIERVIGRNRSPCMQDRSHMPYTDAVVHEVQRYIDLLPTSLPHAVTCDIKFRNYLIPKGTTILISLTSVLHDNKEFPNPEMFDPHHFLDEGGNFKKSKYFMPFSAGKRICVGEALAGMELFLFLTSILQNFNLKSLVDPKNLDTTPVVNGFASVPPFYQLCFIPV
CYP3A4, sequence (P08684 whole entry): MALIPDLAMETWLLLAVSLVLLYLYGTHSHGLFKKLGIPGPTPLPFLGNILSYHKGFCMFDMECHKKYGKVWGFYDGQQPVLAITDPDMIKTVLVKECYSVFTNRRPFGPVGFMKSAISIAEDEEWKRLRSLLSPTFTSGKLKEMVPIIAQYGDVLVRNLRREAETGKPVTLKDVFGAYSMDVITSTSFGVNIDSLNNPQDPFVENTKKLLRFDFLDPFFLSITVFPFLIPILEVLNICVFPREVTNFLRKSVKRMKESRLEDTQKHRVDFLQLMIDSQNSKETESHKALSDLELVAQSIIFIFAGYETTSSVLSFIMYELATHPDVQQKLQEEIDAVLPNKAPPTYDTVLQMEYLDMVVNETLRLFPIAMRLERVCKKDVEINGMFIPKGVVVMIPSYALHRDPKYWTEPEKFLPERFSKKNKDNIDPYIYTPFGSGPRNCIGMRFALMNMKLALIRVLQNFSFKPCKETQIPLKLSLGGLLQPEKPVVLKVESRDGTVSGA
CYP2D6, sequence (P10635 whole entry): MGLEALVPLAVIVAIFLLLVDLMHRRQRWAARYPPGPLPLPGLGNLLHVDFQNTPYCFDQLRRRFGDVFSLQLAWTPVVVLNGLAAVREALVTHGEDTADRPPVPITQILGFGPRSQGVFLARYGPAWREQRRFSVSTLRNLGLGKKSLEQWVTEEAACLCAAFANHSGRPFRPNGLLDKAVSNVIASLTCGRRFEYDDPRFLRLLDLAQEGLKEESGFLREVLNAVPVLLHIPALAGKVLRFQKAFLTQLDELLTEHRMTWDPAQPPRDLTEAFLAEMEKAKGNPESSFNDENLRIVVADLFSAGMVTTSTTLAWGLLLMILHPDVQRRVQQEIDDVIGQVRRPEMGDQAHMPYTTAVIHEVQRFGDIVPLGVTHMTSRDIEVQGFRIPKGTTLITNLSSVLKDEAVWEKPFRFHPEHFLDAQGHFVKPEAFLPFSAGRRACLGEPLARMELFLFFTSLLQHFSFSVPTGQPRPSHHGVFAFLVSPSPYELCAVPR

Row | Compound | fold change (FC) [1] | EC50 [2] [µM] | EC50 [3] [µM] | EC50 [4] [µM] | EC50 [5] [µM] | fold change (FC) [6] | other results
1 | CN(CCOc1ccc(CC2SC(=O)NC2=O)cc1)c1ccccn1 (stereo not drawn) | 1.2 | – | – | – | – | – | –
2 | CCc1ccc(CC(=O)O)cc1OCCC1CCN(c2nc3ccc(Cl)cc3s2)CC1 | – | 3.6 | 0.68 | 0.12 | 0.33 | – | –
3 | Cc1cc(SCc2sc(-c3ccc(C(F)(F)F)cc3)nc2C)ccc1OCC(=O)O [GW501516] | 3.1 | – | – | – | – | 30.4 | Activity [10]: 132.9%; Activity [11]: 82.4 mg/dL; Activity [12]: 493 mg/dL
4 | Cc1cc(CC(=O)O)cc(OCCC2CCN(c3nc4ccc(Cl)cc4s3)CC2)c1 | – | 0.955 | 1.07 | 0.0929 | 0.151 | – | –
5 | O=C(O)Cc1cccc(OCC2CCN(c3nc4ccc(Cl)cc4s3)CC2)c1 | 2.5 | – | – | – | – | 7 | –
6 | Cc1ccc(CC(=O)O)cc1OCCC1CCN(c2nc3ccc(Cl)cc3s2)CC1 | – | 0.637 | 0.542 | 0.0164 | 0.0712 | – | activity at 20 µM [13]: 92%; remaining at 0.5 h [14]: 101%; remaining at 0.5 h [15]: 96%; activity at 20 µM [16]: 58%; activity at 20 µM [17]: 94%; activity at 20 µM [18]: > 99%; solubility kinetic [19]: 21.8 µM (≈ 9.7 µg/mL); clearance [20]: 14.3 mL/min/kg; half-life [21]: 1.8 h; Activity [10]: 118%; Activity [11]: 63.9 mg/dL; Activity [12]: 415 mg/dL; Ratio EC50 [22]: 38; Ratio EC50 [23]: 33
7 | O=C(O)c1cccc(OCCC2CCN(c3nc4ccc(Cl)cc4s3)CC2)c1 | 7.5 | – | – | – | – | 1.4 | –

Continued, in another order:

Row | fold change (FC) [1] | EC50 [2] [µM] | EC50 [3] [µM] | EC50 [4] [µM] | EC50 [5] [µM] | fold change (FC) [6] | Compound | other results
8 | 1.5 | – | – | – | – | 2.2 | O=C(O)CCc1cccc(OCCC2CCN(c3nc4ccc(Cl)cc4s3)CC2)c1 | –
9 | – | – | 0.98 | 0.11 | 0.83 | – | Cc1ccc(OCCC2CCN(c3nc4ccc(Cl)cc4s3)CC2)cc1CC(=O)O | –
10 | 1.5 | – | – | – | – | – | O=C(O)CCC(=O)OCCN1CCN(c2nc3ccc(Cl)cc3s2)CC1 | fold change (FC) [7]: 3; fold change (FC) [8]: 1.5; fold change (FC) [9]: 2.8
11 | 2.4 | – | – | – | – | 2 | O=C(O)CCC(=O)OCCC1CCN(c2nc3ccc(Cl)cc3s2)CC1 | fold change (FC) [7]: 8.6; fold change (FC) [8]: 1.5; fold change (FC) [9]: 11
12 | – | 2.22 | – | 0.263 | 1.06 | – | O=C(O)Cc1cccc(OCCC2CCN(c3nc4ccc(Cl)cc4s3)CC2)c1 | –

From ChEMBL document CHEMBL5131453, “Discovery and structure-based design of a new series of potent and selective PPARδ agonists utilizing a virtual screening method” (Bioorg Med Chem Lett, 2022)
